Experimental data from patent US20250230193A1, “CYCLIC COMPOUND HAVING SELECTIVE KRAS INHIBITORY EFFECT ON HRAS AND NRAS” (CHUGAI SEIYAKU KABUSHIKI KAISHA, priority 2022, published 2025).
Where a SMILES comes first, the peptide text is derived from it. Bridges are numbered along the chain shown (N, C = ends). [ ]: non-standard residue; d: D form. The star is where a group is joined. hPhe(3-Cl-4-CF3) = N[C@@H](CCc1ccc(C(F)(F)F)c(Cl)c1)C(=O)O; NPrPhe(4-CF3) = CCCN[C@@H](Cc1ccc(C(F)(F)F)cc1)C(=O)O; NMeGly(cPent) = CN[C@H](C(=O)O)C1CCCC1; Ac4c(3,3-Me2) = CC1(C)CC(N)(C(=O)O)C1; NMeD = CN[C@@H](CC(=O)O)C(=O)O; NMeL = CN[C@@H](CC(C)C)C(=O)O; Morpholide = C1CN(*)CCO1; Sar = CNCC(=O)O

How the values were obtained:
[1] = biological target: GDP-bound HRAS wild-type protein (Homo sapiens, UniProt P01112); test: Binding to HRAS by surface plasmon resonance (SPR), Single Cycle Kinetics; details: for HRAS/KRAS (ratio of KD value with respect to HRAS to KD value with respect to KRAS) / HRAS/KRAS (ratio of KD value for HRAS to KD value for KRAS): GDP-bound HRAS wild-type vs GDP-bound KRAS wild-type, SPR
[2] = biological target: GDP-bound NRAS wild-type protein (Homo sapiens, UniProt P01111); test: Binding to NRAS by surface plasmon resonance (SPR), Single Cycle Kinetics; details: for NRAS/KRAS (ratio of KD value with respect to NRAS to KD value with respect to KRAS) / NRAS/KRAS (ratio of KD value for NRAS to KD value for KRAS): GDP-bound NRAS wild-type vs GDP-bound KRAS wild-type, SPR
GDP-bound NRAS wild-type protein, sequence (P01111 whole entry): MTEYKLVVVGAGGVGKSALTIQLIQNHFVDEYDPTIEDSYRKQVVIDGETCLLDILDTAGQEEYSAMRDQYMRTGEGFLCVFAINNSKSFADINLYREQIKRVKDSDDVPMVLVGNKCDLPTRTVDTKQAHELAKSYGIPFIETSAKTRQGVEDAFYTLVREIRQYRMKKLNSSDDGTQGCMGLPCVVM

GDP-bound HRAS wild-type protein, sequence (P01112 whole entry): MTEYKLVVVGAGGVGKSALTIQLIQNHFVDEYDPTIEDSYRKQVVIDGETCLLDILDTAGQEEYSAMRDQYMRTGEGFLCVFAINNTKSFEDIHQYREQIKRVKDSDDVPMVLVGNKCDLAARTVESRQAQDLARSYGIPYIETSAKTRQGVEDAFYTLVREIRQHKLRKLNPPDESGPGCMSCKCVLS

Row | Structure (SMILES) | HRAS/KRAS (ratio of KD value with respect to HRAS to KD value with respect to KRAS) [1] | NRAS/KRAS (ratio of KD value with respect to NRAS to KD value with respect to KRAS) [2] | further results
1 | CC[C@H](C)[C@@H]1NC(=O)[C@H](CC(C)C)N(C)C(=O)C[C@@H](C(=O)N2CCOCC2)N(CC)C(=O)[C@H](C2CCCC2)N(C)C(=O)C2(CCCC2)NC(=O)[C@@H]2CCCN2C(=O)[C@H](CCc2ccc(C(F)(F)F)c(Cl)c2)NC(=O)CN(C)C(=O)[C@H](Cc2ccc(F)cc2)N2CCCCC[C@@H](C2=O)N(C)C(=O)CN(C)C1=O [PP0970] | B (a compound having 3 or more and less than 10 is denoted as B) | B (a compound having 3 or more and less than 10 is denoted as B) | 
2 | CCO[C@@H]1C[C@H]2C(=O)NC3(CCC3)C(=O)N(C)[C@@H](C3CCCC3)C(=O)N(C)[C@H](C(=O)N(C)C)CC(=O)N(C)[C@@H](C)C(=O)N[C@@H]([C@@H](C)CC)C(=O)N(C)CC(=O)N(C)[C@H]3C/C=C\CCN(C3=O)[C@@H](Cc3ccc(C(F)(F)F)cc3)C(=O)N(C)CC(=O)N[C@@H](CCc3cc(F)c(C(F)(F)F)c(F)c3)C(=O)N2C1 [PP1108] | A (a compound having 10 or more and less than 20 is denoted as A) | A (a compound having 10 or more and less than 20 is denoted as A) | 
3 | CCO[C@@H]1C[C@H]2C(=O)NC3(CCCC3)C(=O)N(C)[C@@H](C3CCCC3)C(=O)N(C)[C@H](C(=O)N(C)C)CC(=O)N(C)[C@@H](CC(C)C)C(=O)N[C@@H]([C@@H](C)CC)C(=O)N(C)CC(=O)N(C)[C@H]3C/C=C\CCN(C3=O)[C@@H](Cc3ccc(C(F)(F)F)cc3)C(=O)N(C)CC(=O)N[C@@H](CCc3ccc(Cl)c(Cl)c3)C(=O)N2C1 [PP2837] |  |  | HRAS/KRAS (ratio of KD value with respect to GDP-bound HRAS wild-type protein to KD value with respect to KRAS) ([1]; KD ratio HRAS/KRAS, class symbols): A (a compound having 10 or more and less than 20 is denoted as A); NRAS/KRAS (ratio of KD value with respect to GDP-bound NRAS wild-type protein to KD value with respect to KRAS) ([2]; KD ratio NRAS/KRAS, class symbols): AA (a compound having 20 or more is denoted as AA)
4 | CCO[C@@H]1C[C@H]2C(=O)NC3(CCC3)C(=O)N(C)[C@@H](C3CCCC3)C(=O)N(C)[C@H](C(=O)N3CCOCC3)CC(=O)N(C)[C@@H](Cc3cccs3)C(=O)N[C@@H]([C@@H](C)CC)C(=O)N(C)CC(=O)N(C)[C@H]3CCCCCN(C3=O)[C@@H](Cc3ccc(C(F)(F)F)cc3)C(=O)N(C)CC(=O)N[C@@H](CCc3cc(F)c(C(F)(F)F)c(F)c3)C(=O)N2C1 [PP1163] | B (a compound having 3 or more and less than 10 is denoted as B) | B (a compound having 3 or more and less than 10 is denoted as B) | 
5 | CCCN1C(=O)CN(C)C(=O)CN(C)C(=O)[C@H]([C@@H](C)OCC)NC(=O)[C@H](CC(C)C)N(C)C(=O)C[C@@H](C(=O)N2CCOCC2)N(C)C(=O)[C@H](C2CCCC2)N(C)C(=O)C2(CC(C)(C)C2)NC(=O)[C@@H]2CCCN2C(=O)[C@H](CCc2ccc(C(F)(F)F)c(Cl)c2)NC(=O)CN(C)C(=O)[C@@H]1Cc1ccc(C(F)(F)F)cc1 [PP1964] ([NMeL]T(Et)[Sar][Sar][NPrPhe(4-CF3)][Sar][hPhe(3-Cl-4-CF3)]P[Ac4c(3,3-Me2)][NMeGly(cPent)][NMeD]-Morpholide; lactam N-11) |  |  | HRAS/KRAS (ratio of KD value for HRAS to KD value for KRAS) [1]: B (a compound having 3 or more and less than 10 is denoted as B); NRAS/KRAS (ratio of KD value for NRAS to KD value for KRAS) [2]: B (a compound having 3 or more and less than 10 is denoted as B)
6 | CC[C@H](C)[C@@H]1NC(=O)[C@H](CC(C)C)N(C)C(=O)C[C@@H](C(=O)N2CCOCC2)N(C)C(=O)[C@H](C2CCCC2)N(C)C(=O)C2(CCC2)NC(=O)[C@@H]2[C@H](O)CCN2C(=O)[C@H](CCc2cc(F)c(C(F)(F)F)c(F)c2)NC(=O)CN(C)C(=O)[C@H](Cc2ccc(C(F)(F)F)cc2)N2CCCC[C@@H](C2=O)N(C)C(=O)CN(C)C1=O [PP0870] | B (a compound having 3 or more and less than 10 is denoted as B) | B (a compound having 3 or more and less than 10 is denoted as B) | 
7 | CCC[C@H]1C(=O)N[C@@H]([C@@H](C)CC)C(=O)N(C)CC(=O)N(C)[C@H]2C/C=C\CCN(C2=O)[C@@H](Cc2ccc(C)cc2)C(=O)N(C)CC(=O)N[C@@H](CCc2ccc(C(F)(F)F)c(OC)c2)C(=O)N2C[C@H](OCC)C[C@H]2C(=O)NC2(CCC2)C(=O)N(C)[C@@H](C2CCCC2)C(=O)N(C)[C@H](C(=O)N(C)C)CC(=O)N1C [PP1871] |  |  | HRAS/KRAS (ratio of KD value for HRAS to KD value for KRAS) [1]: A (a compound having 10 or more and less than 20 is denoted as A); NRAS/KRAS (ratio of KD value for NRAS to KD value for KRAS) [2]: A (a compound having 10 or more and less than 20 is denoted as A)
8 | CC[C@H](C)[C@@H]1NC(=O)[C@H](CC(C)C)N(C)C(=O)C[C@@H](C(=O)N2CCOCC2)N(C)C(=O)[C@H](C2CCCC2)N(C)C(=O)C2(CCC2)NC(=O)[C@@H]2[C@@H](O)CCN2C(=O)[C@H](CCc2cc(F)c(C(F)(F)F)c(F)c2)NC(=O)CN(C)C(=O)[C@H](Cc2ccc(C(F)(F)F)cc2)N2CCCCC[C@@H](C2=O)N(C)C(=O)CN(C)C1=O [PP0872] | A (a compound having 10 or more and less than 20 is denoted as A) | A (a compound having 10 or more and less than 20 is denoted as A) | 
